Source: BindingDB's records for patent US20230382904 (The Johns Hopkins University, 2023)
pIC50: −log10 of the molar value.

Legend:
[1] = target: T1, Mitogen-activated protein kinase kinase kinase 12 (Homo sapiens, UniProt Q12852); assay: DLK Biochemical Assay
T1 sequence (Q12852 whole entry): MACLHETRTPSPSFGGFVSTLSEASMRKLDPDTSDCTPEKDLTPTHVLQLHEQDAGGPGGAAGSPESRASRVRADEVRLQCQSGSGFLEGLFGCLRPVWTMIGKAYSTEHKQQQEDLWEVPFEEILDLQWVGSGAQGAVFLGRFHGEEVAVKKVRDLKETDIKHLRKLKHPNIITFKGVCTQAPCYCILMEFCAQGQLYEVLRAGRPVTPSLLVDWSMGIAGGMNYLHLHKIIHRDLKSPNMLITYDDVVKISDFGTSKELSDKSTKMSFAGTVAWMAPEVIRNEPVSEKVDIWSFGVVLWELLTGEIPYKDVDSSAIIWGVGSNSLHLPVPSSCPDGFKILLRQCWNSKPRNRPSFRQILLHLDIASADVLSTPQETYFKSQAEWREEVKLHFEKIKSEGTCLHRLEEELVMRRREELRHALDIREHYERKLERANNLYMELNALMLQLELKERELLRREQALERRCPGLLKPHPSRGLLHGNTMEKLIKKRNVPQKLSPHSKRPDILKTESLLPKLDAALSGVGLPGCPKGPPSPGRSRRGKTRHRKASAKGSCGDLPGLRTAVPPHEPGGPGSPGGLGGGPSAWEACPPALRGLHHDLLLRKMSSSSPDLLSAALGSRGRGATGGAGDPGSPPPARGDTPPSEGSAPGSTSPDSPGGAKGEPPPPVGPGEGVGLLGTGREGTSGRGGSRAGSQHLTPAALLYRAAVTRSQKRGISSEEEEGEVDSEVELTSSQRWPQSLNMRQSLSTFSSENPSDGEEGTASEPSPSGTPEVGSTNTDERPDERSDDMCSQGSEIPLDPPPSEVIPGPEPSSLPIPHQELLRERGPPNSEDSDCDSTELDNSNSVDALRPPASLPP

[2] = target: T2, Mitogen-activated protein kinase kinase kinase 13 (Homo sapiens, UniProt O43283); assay: LZK Biochemical Assay
T2 sequence (O43283 whole entry): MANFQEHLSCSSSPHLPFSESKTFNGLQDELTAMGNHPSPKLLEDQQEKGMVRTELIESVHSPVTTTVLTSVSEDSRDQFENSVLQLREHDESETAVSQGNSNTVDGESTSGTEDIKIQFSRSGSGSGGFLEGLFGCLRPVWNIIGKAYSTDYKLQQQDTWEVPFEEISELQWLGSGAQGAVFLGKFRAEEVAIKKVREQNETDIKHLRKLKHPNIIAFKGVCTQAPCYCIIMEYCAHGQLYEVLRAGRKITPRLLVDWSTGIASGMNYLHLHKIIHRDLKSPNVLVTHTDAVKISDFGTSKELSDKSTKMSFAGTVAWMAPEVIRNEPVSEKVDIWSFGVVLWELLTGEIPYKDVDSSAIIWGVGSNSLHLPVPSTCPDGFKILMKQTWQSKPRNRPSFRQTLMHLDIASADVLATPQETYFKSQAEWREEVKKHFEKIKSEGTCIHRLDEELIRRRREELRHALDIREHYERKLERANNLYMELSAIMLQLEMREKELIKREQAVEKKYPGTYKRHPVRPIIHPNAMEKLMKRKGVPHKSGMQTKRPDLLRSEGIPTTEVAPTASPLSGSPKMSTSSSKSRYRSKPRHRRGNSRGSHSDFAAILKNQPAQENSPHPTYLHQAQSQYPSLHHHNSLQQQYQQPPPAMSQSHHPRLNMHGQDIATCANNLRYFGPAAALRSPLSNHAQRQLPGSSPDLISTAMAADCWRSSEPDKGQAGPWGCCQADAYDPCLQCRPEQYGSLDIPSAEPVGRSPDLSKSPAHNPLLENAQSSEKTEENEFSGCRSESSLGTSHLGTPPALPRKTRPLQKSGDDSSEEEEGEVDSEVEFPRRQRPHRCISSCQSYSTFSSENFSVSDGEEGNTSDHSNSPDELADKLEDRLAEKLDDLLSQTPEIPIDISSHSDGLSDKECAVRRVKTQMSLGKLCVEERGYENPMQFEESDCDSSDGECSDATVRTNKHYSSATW
Procedure: All indicated concentrations final concentrations. […] Detection buffer: 25 mM Tris/HCl pH 7.5, 100 mM EDTA, 100 mM NaCl, 200 mM KF, 0.01% Tween 20, 1:500 Smart Block.

SMILES: COC[C@H](NC(=O)c1cc(-c2cc(C(=O)NC(C)C)n3nc(N)nc3c2)cs1)c1ccccc1 [US20230382904, Compound 155]
- pIC50 [1]: 8.37
- pIC50 [2]: 7.39
